Test system: compound-treated mice
Experiment: Neuropharmacological assay (SmartCube): behavioral activity signature and minimal effective dose
Format: in vivo
Details: for minimal effective dose: Mus musculus, ip, read-out: Potency: minimal effective dose (MED), binned; for AD: ADHD (probability of activity signature) / AG: analgesic (probability of activity signature) / AX: anxiolytic (probability of activity signature) / CE: cognitive enhancer (probability of activity signature) / DP: anti-depressant (probability of activity signature) / MS: mood stabilizer (probability of activity signature) / PS: anti-psychotic (probability of activity signature) / SD: sedative hypnotic (probability of activity signature) / UN: uncharacterized CNS activity (probability of activity signature): i.p. 15 min before test, most efficacious dose(s)
Method in brief: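 Video-recorded behavior is compared algorithmically against a reference-compound database, yielding class probabilities (best dose reported). Compounds given i.p. in NMP/PEG/propylene glycol 15 min pre-test at 3 doses; potency as MED, the dose (mpk, range usually 0.3–30) reaching ≥50% total activity.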

[1] = MED = dose having 50% or more total activity

| Molecule | minimal effective dose [1] | AD: ADHD (probability of activity signature) | AG: analgesic (probability of activity signature) | AX: anxiolytic (probability of activity signature) | CE: cognitive enhancer (probability of activity signature) | DP: anti-depressant (probability of activity signature) | MS: mood stabilizer (probability of activity signature) | PS: anti-psychotic (probability of activity signature) | SD: sedative hypnotic (probability of activity signature) | UN: uncharacterized CNS activity (probability of activity signature) | Potency: minimal effective dose (MED), binned [1] |
| --- | --- | --- | --- | --- | --- | --- | --- | --- | --- | --- | --- |
| CCN(C)C(=O)Oc1ccc2c(c1)[C@H](N)[C@@H](C)OC2.Cl [Example 282] | > 30 mg/kg | + (LOQ ≤ + <5%) | + (LOQ ≤ + <5%) | + (LOQ ≤ + <5%) | + (LOQ ≤ + <5%) | + (LOQ ≤ + <5%) | + (LOQ ≤ + <5%) | + (LOQ ≤ + <5%) | ++ (5% ≤ ++ <25%) | + (LOQ ≤ + <5%) | – |
| CCN(C)C(=O)Oc1ccc2c(c1)COCC2N(C)C.Cl (centres unmarked) [Example 283] | 3 to 10 mg/kg | ++ (5% ≤ ++ <25%) | + (LOQ ≤ + <5%) | ++ (5% ≤ ++ <25%) | + (LOQ ≤ + <5%) | ++ (5% ≤ ++ <25%) | +++ (25% ≤ +++ <50%) | ++ (5% ≤ ++ <25%) | ++ (5% ≤ ++ <25%) | ++ (5% ≤ ++ <25%) | – |
| CCN(C)C(=O)Oc1ccc2c(c1)C(N(C)C)COC2.Cl (centres unmarked) [Example 284] | 10 to 30 mg/kg | + (LOQ ≤ + <5%) | + (LOQ ≤ + <5%) | ++ (5% ≤ ++ <25%) | + (LOQ ≤ + <5%) | ++ (5% ≤ ++ <25%) | +++ (25% ≤ +++ <50%) | ++ (5% ≤ ++ <25%) | ++ (5% ≤ ++ <25%) | + (LOQ ≤ + <5%) | – |
| CCN(C)C(=O)Oc1ccc2c(c1)CO[C@@H](C)[C@H]2N(C)C.Cl [Example 285] | 3 to 10 mg/kg | ++ (5% ≤ ++ <25%) | + (LOQ ≤ + <5%) | ++ (5% ≤ ++ <25%) | + (LOQ ≤ + <5%) | ++ (5% ≤ ++ <25%) | ++++ (50% ≤ ++++) | ++++ (50% ≤ ++++) | + (LOQ ≤ + <5%) | ++ (5% ≤ ++ <25%) | – |
| CCN(C)C(=O)Oc1ccc2c(c1)CO[C@H](C)[C@H]2N(C)C.Cl [Example 286] | 10 to 30 mg/kg | + (LOQ ≤ + <5%) | + (LOQ ≤ + <5%) | + (LOQ ≤ + <5%) | + (LOQ ≤ + <5%) | ++ (5% ≤ ++ <25%) | ++ (5% ≤ ++ <25%) | + (LOQ ≤ + <5%) | ++ (5% ≤ ++ <25%) | ++ (5% ≤ ++ <25%) | – |
| CCN(C)C(=O)Oc1ccc2c(c1)[C@H](N(C)C)[C@H](C)OC2.Cl [Example 287] | > 30 mg/kg | + (LOQ ≤ + <5%) | + (LOQ ≤ + <5%) | + (LOQ ≤ + <5%) | + (LOQ ≤ + <5%) | + (LOQ ≤ + <5%) | + (LOQ ≤ + <5%) | + (LOQ ≤ + <5%) | ++ (5% ≤ ++ <25%) | + (LOQ ≤ + <5%) | – |
| CCN(C)C(=O)Oc1ccc2c(c1)[C@H](N(C)C)[C@@H](C)OC2.Cl [Example 288] | > 30 mg/kg | + (LOQ ≤ + <5%) | + (LOQ ≤ + <5%) | + (LOQ ≤ + <5%) | + (LOQ ≤ + <5%) | ++ (5% ≤ ++ <25%) | + (LOQ ≤ + <5%) | + (LOQ ≤ + <5%) | ++ (5% ≤ ++ <25%) | + (LOQ ≤ + <5%) | – |
| cis-3-Isopropylisochroman-4-amine hydrochloride [Example 273] | – | + (LOQ ≤ + <5%) | ++ (5% ≤ ++ <25%) | + (LOQ ≤ + <5%) | + (LOQ ≤ + <5%) | ++ (5% ≤ ++ <25%) | ++ (5% ≤ ++ <25%) | + (LOQ ≤ + <5%) | +++ (25% ≤ +++ <50%) | ++ (5% ≤ ++ <25%) | A (≤3 mpk) |

From patent US11077090B2, “Compounds and compositions and uses thereof” (Sunovion Pharmaceuticals Inc., priority 2016, dated 2021)
